Experimental data from patent publication US20250353825A1, “CANNABICYCLOL DERIVATIVES AND PREPARATION METHODS THEREOF” (priority 2023, published 2025).
≈ marks a conversion by molar mass, not a printed value.

Columns and labels:
Format in all cases: cell-based
[1] = MTS cell viability assay, HEK-293T (293T) normal cells; conditions: human; primary viability screening, 72 hours, MTS; test concentration not stated; read-out: Cell viability in 293T (%)
Method: (§1) Primary viability screening: (1) the synthesized compounds 3a to 13d were respectively dissolved in DMSO to prepare a 40 μg/mL cannabicyclol and cannabicyclol derivative solutions.
(§2) (2) A control group: a 200 μL DMSO solvent.
(§3) (3) The solutions of compounds 3a to 13d were diluted in a twofold gradient to obtain cannabicyclol and cannabicyclol derivative solutions at concentrations of 40 μg/mL, 20 μg/mL, 10 μg/mL, 5 μg/mL, 2.5 μg/mL, 1.25 μg/mL, and 0.625 μg/mL, and 0.3125 μg/mL, respectively.
(§4) (4) Three glioblastoma stem cells (GSC-3, GSC-12, and GSC-18), three pancreatic cancer cell-derived stem cells (PANC-1-CSC, BXPC-3-CSC, and ASPC1-CSC), three liver cancer cell-derived stem cells (HepG2-CSC, MHCC97H-CSC, and SMMC7721-CSC), HEK-293T cells, 16 tumor cells (U251, U87, T98G, PANC1, BXPC3, ASPC1, HepG2, MHCC97H, SMMC7721, PC3, SKOV3, MDA-MB231, A549, HCT116, HEC-1B, MKN28), and differentiated glioblastoma stem cells (GSC-3diff and GSC-12diff) derived from GSC-3 and GSC-12 (all of the cells were provided by the Laboratory of Tumor Animal Model Preparation and Application Research, West China Hospital, Sichuan University) were inoculated into a 96-well plate at a concentration of 2×10^4 cells/well, and 100 μL of culture medium was then added to each well;
(§5) (5) 2) HEK-293T, GSC-3diff, GSC-12diff, and the 16 tumor cells were added with DMEM, 10% FBS, and 1% double antibody culture medium. Cancer stem cells (CSCs) were added with serum-free stem cell medium consisting of DMEM/F12, EGF (20 ng/mL), bFGF (20 ng/mL), B27 (1×), and 1% double antibody culture medium.
(§6) (6) Inoculated cells were put into a cell culture incubator for 24 hours, and after the cells were well adhered to the wall, the culture medium in the 96-well plate was discarded.
(§7) (7) 200 μL cannabicyclol and cannabicyclol derivatives solutions at different concentrations were added to the cultured cells.
(§8) (8) The experiment was set up with 3 replicates.
(§9) (9) The 96-well plate was placed in a cell culture incubator, and incubation was continued at 37° C. and 5% CO2 for 72 hours. Then, 100 μL of cannabicyclol and cannabicyclol derivative solution per well was discarded (100 μL of DMSO solvent was discarded for the control group), and 20 μL of LMTS (CellTiter AQueous Non-Radioactive Cell Proliferation Assay, #G3581) was mixed and continued to be placed in the cell incubator for 2 hours of incubation.
(§10) (10) The absorbance value at 490 nm was measured on an enzyme labeling apparatus, and the IC50 value was calculated.

[2] = system: HEK-293T; assay: as above; conditions: Homo sapiens, HEK-293T, 72 h, read-out: IC50 against HEK-293T
Method: as §1, §2, §3, §4, §5, §6, §7, §8, §9, §10

[3] = system: GSC-18; assay: MTS cell viability assay, GSC-18; conditions: GSC18; Table 6, tumor stem cell, 72 hours; read-out: IC50 against GSC-18
Method: as §1, §2, §3
as §4, with “well; […]” for “well;”
as §10

[4] = system: BXPC3-CSC; assay: MTS cell viability assay, BXPC3-CSC; conditions: Table 6, tumor stem cell, 72 hours; read-out: IC50 against BXPC3-CSC
Method: as §1, §2, §3
as §4, with “well; […]” for “well;”
as §10

[5] = system: U87; assay: MTS cell viability assay, U87; conditions: Homo sapiens, U-87 MG; Table 7, 72 hours; read-out: IC50 against U87
Method: as §1, §2, §3
as §4, with “well; […]” for “well;”
as §10

[6] = system: GSC-3diff; assay: MTS cell viability assay, differentiated glioblastoma stem cells GSC-3diff; conditions: Table 7, 72 hours, read-out: IC50 against GSC-3diff
Method: as §1, §2, §3
as §4, with “well; […]” for “well;”
as §10

[7] = system: ASPC1; assay: MTS cell viability assay, ASPC1; conditions: Homo sapiens, Table 7, 72 hours, read-out: IC50 against ASPC1
Method: as §1, §2, §3
as §4, with “well; […]” for “well;”
as §10

[8] = system: GSC-3; assay: Soft agar colony (clone) formation, GSC-3; conditions: crystal violet, FIG. 4, compound 3a 0, 5 and 5 [sic] μg/mL
Method: (§11) […] of low-melting-point agarose was dissolved in 12.5 mL of ddH2O to prepare a 3.2% low-melting-point agarose gel. The low-melting-point agarose gel was sterilized by autoclaving at 121° C. and 0.12 MPa for 20 minutes. After sterilization, the low-melting-point agarose gel was maintained at 60° C. in a drying oven for further use.
(§12) 1.75 mL of 3.2% sterile low-melting-point agarose gel was taken, 5.25 mL of the corresponding complete medium was added, and the two were mixed thoroughly using a pipette to prepare a base gel at a concentration of 0.8%.
(§13) 1 mL of the base gel was added to each well of a 6-well plate, ensuring that the base gel evenly covered the bottom of each well. The plate was placed at 4° C. for 5 minutes to allow the gel to solidify. After the gel had fully solidified, the plate was warmed at 37° C. for 5 minutes.
(§14) 6 cells/cell lines (U251, SMMC7721, GSC-3, GSC-12, SMMC7721-CSC, and HepG2-CSC) were individually digested with 1× trypsin for 3 minutes. The corresponding complete culture medium (same as in the application example 1) was added to terminate the digestion. Cells were centrifuged at 1000 rpm for 3 minutes, and the cells were collected and counted. A total of 5×10^3 cells were added to each well, each group was set up with three replicates. […]

[9] = system: GSC-12; assay: Soft agar colony (clone) formation, GSC-12; conditions: crystal violet, FIG. 4, compound 3a 0, 5 and 5 [sic] μg/mL
Method: as §11, §12, §13, §14

CCCCCc1cc(O)c2c(c1)OC1(C)CCC3C1C2C3(C)C (stereo not drawn) [Compound 3a, cannabicyclol]
viability at 72 h [1]: 82% | IC50 [2]: > 40 µg/mL | IC50 [3]: 6.4 µg/mL (≈ 20.4 µM) | IC50 [4]: 2.19 µg/mL (≈ 6.96 µM) | IC50 [5]: > 40 µg/mL | IC50 [6]: 23.5 µg/mL (≈ 74.7 µM) | IC50 [7]: > 40 µg/mL | colony formation of GSC-3 [8]: significantly inhibited | colony formation of GSC-12 [9]: significantly inhibited
